Data: patent publication US20260345641A1, “COMPOSITIONS AND USES THEREOF” (Algorae Pharmaceuticals Ltd, priority 2023, published 2026)

What was measured:
[1] = tested on: SH-SY5Y cells; assay: Gene expression analysis by RNA sequencing in the presence of Aβ; assay type: cell-based, human
Text: (§1) The SH-S5Y5 neuroblastoma cell line was used for pre-clinical analysis. The SH-S5Y5 cell line is commonly used as a model for neurodegenerative disorders as the cells can be converted to various types of functional neurons by the addition of specific compounds (see, e.g., Xicoy et al., 2017, Molecular Neurodegeneration, 12: 10). In addition, the SH-S5Y5 cell line has been used widely in experimental neurological studies, including analysis of neuronal differentiation, metabolism, and function related to neurodegenerative processes, neurotoxicity and neuroprotection (see, e.g., Datki et al., 2003, Brain Research Bulletin, 62(3): 22-229; and Xie et al., 2010, Chinese Medical Journal, 123(8): 1086-1092).
Total RNA was isolated from cells using TRIzol in accordance with the manufacturer's instructions (Invitrogen, Carlsbad, CA, USA). RNA concentration and quality was assessed using a NanoDrop spectrophotometer. Only samples with a 260/280 ratio of ≥1.8 were used for further analysis.
Messenger RNA (mRNA) was purified from total RNA using poly-T oligo attached magnetic beads. After fragmentation, cDNA synthesis was performed in accordance with the manufacturer's instructions (Illumina, San Diego, CA, USA) to generate a directional and non-directional library. Libraries were checked with Qubit, real-time PCR was performed for quantification, and size distribution detection was performed using the Bioanalyzer. Quantified libraries were pooled and sequenced on an Illumina platform, according to the manufacturer's instructions.
Raw reads were filtered and mapped to human reference genome (GRCh38/hg38) using HISAT2. Differential gene expression analysis was performed using R Package DEG seq2. […] Manual annotation of genes previously associated with specific neurodegenerative disorders and dementias was performed following a text mining analysis.

[2] = tested on: SH-S5Y5 neuroblastoma cells; assay: Cell viability (MTT) in response to Aβ, in vitro model of Alzheimer's disease; assay type: cell-based; settings: 20 μM Aβ, 24 h
Text: as §1
100 μL MTT reagent was added to each well (final concentration 0.5 mg/mL). Cells were then incubated at 37 °C, 5% CO2 for 4 hours. Solubilization buffer (100 μL) was then added to each well and further incubated at 37 °C, 5% CO2 for 24 hours. Absorbance was then measured by spectrophotometer at 550-600 nm and background corrected at 650 nm.
Amyloid-β (Aβ; 1 mg) was dissolved in 2 mL of 1,1,1,3,3,3-hexafluoro-2-propanol (HFIP). An additional 200 μL of HFIP was then added due to volatility. The Aβ was sealed with parafilm and vortexed for 30 seconds before aliquoting at 100 μL per 1.5 mL tube. HFIP was then evaporated in fume hood for 8 hours. Tubes were then sealed with lid and parafilm and stored at −80 °C. Prior to use, Aβ was reconstituted in DMSO to a final volume of 10% v/v for 10-15 min at RT and vortexed every 3-5 min. F-12 medium was then added to a final volume of 90% v/v. Aβ was then stored at 4 °C for 24 hours and vortexed before use.
Cells were seeded in 96-well microplates and incubated 37 °C, 5% CO2 for 24 hours.

[3] = oral administration; cited from earlier work

Structure (SMILES) | MFSD8 expression [1] [FPKM] | MBP expression ([1]; 5 μM CBD, Aβ, control 0.089, P 0.012) [FPKM] | GBE1 expression ([1]; 5 μM CBD, Aβ, control 1.194, P 0.037) [FPKM] | ERCC4 expression ([1]; 5 μM CBD, Aβ, control 1.970, P 0.037) [FPKM] | MT-TW expression ([1]; 5 μM CBD, Aβ, control 2.846, P 0.023) [FPKM] | TRAPPC2 expression ([1]; 5 μM CBD, Aβ, control 3.872, P 0.013) [FPKM] | SLC20A2 expression ([1]; 5 μM CBD, Aβ, control 7.014, P 0.046) [FPKM] | IRF6 expression ([1]; 5 μM CBD, Aβ, control 7.365, P 0.012) [FPKM] | LAMP1 expression ([1]; 5 μM CBD, Aβ, control 34.350, P 0.018) [FPKM] | TAF15 expression ([1]; 5 μM CBD, Aβ, first TAF15 line, control 14.968, P 0.046) [FPKM] | TAF15 expression ([1]; 5 μM CBD, Aβ, second TAF15 line, control 15.869, P 0.046) [FPKM] | Cell viability as measured by MTT ([2]; CBD 2.5 μM) | Cell viability as measured by MTT ([2]; CBD 5 μM) | Cell viability as measured by MTT ([2]; CBD 10 μM) | bioavailability [3]
C=C(C)[C@@H]1CCC(C)=C[C@H]1c1c(O)cc(CCCCC)cc1O [CBD, Cannabidiol] | 2.603 | 0.046 | 1.305 | 2.197 | 4.309 | 4.267 | 7.447 | 7.774 | 31.452 | 17.887 | 17.095 | 0.011 | 0.031 | 0.116 | 
CCN(C)C(=O)Oc1cccc([C@H](C)N(C)C)c1 [Rivastigmine] |  |  |  |  |  |  |  |  |  |  |  |  |  |  | high bioavailability
COc1ccc2c3c1O[C@H]1C[C@@H](O)C=C[C@@]31CCN(C)C2 [Galantamine] |  |  |  |  |  |  |  |  |  |  |  |  |  |  | high bioavailability
